Reference: US20080261896A1, “Testosterone generating and metabolizing enhancer” (Sinphar Pharmaceutical Co., Ltd., priority 2007, published 2008)

Test system: mouse Leydig tumor cell line R2C
Assay: Test 1: testosterone generation of the mouse Leydig tumor cell line R2C (Testosterone EIA kit)
Assay type: cell-based
Conditions: R2C cells
Text: Test 1: Testing testosterone generation of the mouse Leydig tumor cell line R2C.
Materials: The extract of C. tubulosa prepared in the aforesaid first embodiment, and said echinacoside and acteoside used in the second and the third embodiments. The mouse Leydig tumor cell line R2C was obtained from the Japan Health Sciences Foundation (Osaka), and a Testosterone EIA testing kit was used to test testosterone levels.
Method: The R2C cells were subcultured in a cell medium called Ham's F10, which comprised 15% bovine serum, 2.5% fetal bovine serum, 100 units/mL penicillin G, and 100 μg/mL streptomycin. The cells were inoculated on a 24-hole plate at a density of 5×10^5 cells/mL, and 500 μL of the cell medium was added into each hole. After culturing for 24 hours, 50 μL of solutions resulted from dissolving samples from the first to the third embodiments in the same cell medium was added into each hole. After culturing for another 4 fours, the cells were collected along with the cell medium and subjected to centrifugation, so as to collect supernatant that included the cell medium. The Testosterone EIA testing kit (manufactured by Cayman Chemical Corporate) was used to determine testosterone concentrations in the each tested sample, and the results were shown in FIG. 1.

Row | Compound | testosterone generation (testosterone level in the supernatant) versus control (10 μg/mL) | testosterone generation (testosterone level in the supernatant) versus control (30 μg/mL) | testosterone generation (testosterone level in the supernatant) versus control (100 μg/mL)
1 | C[C@@H]1O[C@@H](O[C@@H]2[C@@H](O)[C@H](OCCc3ccc(O)c(O)c3)O[C@H](CO[C@@H]3O[C@H](CO)[C@@H](O)[C@H](O)[C@H]3O)[C@H]2OC(=O)/C=C/c2ccc(O)c(O)c2)[C@H](O)[C@H](O)[C@H]1O [echinacoside] | increased | increased | increased to twice as much as that of the control
2 | C[C@@H]1O[C@@H](O[C@@H]2[C@@H](O)[C@H](OCCc3ccc(O)c(O)c3)O[C@H](CO)[C@H]2OC(=O)/C=C/c2ccc(O)c(O)c2)[C@H](O)[C@H](O)[C@H]1O [acteoside] | increased |  | increased
